The source of these data is patent publication US5322928A, “Diapause hormone isolated from silkworm exhibiting improved diapause activity” (Shionogi Seiyaku Kabushiki Kaisha, priority 1991, dated 1994).

Where no end group is shown, it is not given here.

For this test, the system named is silkworm non-diapause strain (N4 line) pupa. Nature of the test: Assay of bioactivity: specimen injected into 4 days-age pupa of non-diapause strain, percentage of laid eggs that diapause. The format is in vivo, silkworm (Bombyx mori). As to conditions: qualitative. The method, then: The hormonal activity was confirmed by the following method: the specimen is injected into the 4 days-age pupa of non-diapause strain. After the pupa transforms into a imago, copulates, and lays eggs, it is investigated whether or not the eggs diapause without embryogenesis. […] In case that the specimen has the hormonal activity, the color of the eggs becomes blackish-brown which is not observed in non-diapausing eggs. […] The hormonal activity is determined by calculating what percentage of the eggs laid by one imago diapauses. One diapause hormone unit is the amount of the hormone which make 50% of the laid eggs diapause. In this invention, the isolated diapause hormone was 0.1 ng/unit.

For “TDMKDESDRGAHSERGALWFGPRL-NH2 [amino acid 19 is Trp]”, the “diapause hormone activity (hormonal activity in bioassay)” value is given as “have diapause activity”.
Consider “TDMKDESDRGAHSERGALCFGPRL-NH2 [amino acid 19 is Cys]”, for which the “diapause hormone activity (hormonal activity in bioassay)” value is on record as “have diapause activity”.
